Source: patent publication US6383773B2, “Penicillin conversion” (Massachusetts Institute of Technology, priority 1998, dated 2002)

Experiments:
Type in all cases: cell-based
[1] = tested on: growing S. clavuligerus NP1 cells; test: Conversion of penicillin G into DAOG by growing cells (Example 2)
Description: Media: Seed culture was prepared using 250 ml baffled flasks containing 40 ml MST medium (90 mM MOPS, 3% Trypticase Soy Broth without Dextrose, 1% soluble starch) adjusted to pH 7.0 before autoclaving. Fermentation was carried out in the same medium or in the defined medium described by Mahro and Demain (1987) containing, per liter, 5 g MOPS; 3.5 g K2 HPO4; 1 ml trace solution containing 1 mg FeSO4.7H2O, 1 mg, MnCl2.4H2O, 1 mg ZnSO4.H2O and 1 mg CaCl2; 2 g L-asparagine; 0.6 g MgSO4.7H2O; 10 g glycerol; initial pH 7.0.
Culture Conditions: For the seed culture, each flask was inoculated with 50 μl of a spore suspension (prepared and stored in 20% glycerol at −80° C.) and incubated at 30° C. for 48 h. Fermentation were conducted in 250 ml baffled flasks containing 30 ml of medium at 30° C. at 250 rpm. Fermentations were started by transferring 1.5 ml of unwashed mycelium from the seed culture and their duration was 5 days. Once a day, samples were taken for pH, biomass and antibiotic analyses. Growth was measured as dry cell weight.
Bioassay: Cephalosporin type antibiotic(s) were detected by bioassay using Escherichia coli Ess seeded in LB (1% Tryptone, 0.5% NaCl, 0.5% Yeast Extract, 0.1% Glucose) 0.8% agar medium in the presence of penicillinase (Difco Laboratories, Detroit, Mich.). This is a narrow spectrum β-lactamase that destroys all kinds of penicillins but not cephalosporins. Assays were conducted with filter paper discs saturated with 100 μl of standard (deacetoxycephalosporin G) or supernatants from the fermentation flask. The diameters of zones of growth inhibition were measured after overnight incubation at 37° C.

[2] = tested on: resting S. clavuligerus NP1 cells; test: Penicillin G conversion by resting cells: buffer, preincubation, substrate concentration (Example 4)
Description: Microorganisms, Media, and Culture Conditions: S. clavuligerus mutant NP-1, described in Example 1 was used for these studies. A seed culture was made by inoculating a spore suspension (40 μl) into 40 ml MST medium in 250 ml baffled flasks, and incubating for 2 days at 30° C. and 250 rpm. One ml of the seed culture was used as inoculum for the main culture which contained 80 ml of MST medium in 500 ml unbaffled flasks. The flasks were incubated for 24 h at 30° C. and 250 rpm.
Preparation of Resting Cells: Cells were harvested by centrifugation at 14,000×g, for 15 min at 4° C. and washed twice with cold deionized water. They were resuspended in 10 ml of water.
Ring Expansion Reaction: The standard reaction mixture (10 ml) contained 0.05 M Tris-HCl pH 7.4, 8.0 mM KCl, 8.0 mM MgSO4.7H2O, 4.0 mM ascorbic acid, 1.8 mM FeSO4.7H2O, 1.28 mM α-ketoglutaric acid, 20 mg/ml penicillin G and 4.0 ml cell suspension. The order of addition of the components were as previously described (Shen et al., Enzyme Microb. Technol. 6:402-404, 1984). The reaction started when penicillin G was added to the reaction mixture which was incubated at 30° C. and 220 rpm.
Expandase Assay: Product formation was estimated by the paper disk-agar diffusion bioassay as described in example 1, using deacetoxycephalosporin G as standard. Escherichia coli strain Ess, a β-lactam supersensitive, mutant was used as the assay microorganism.

[3] = tested on: immobilized S. clavuligerus NP1 cells; test: Conversion of penicillin G by immobilized cells (Example 5)
Description: Culture Conditions: A seed culture of S. clavuligerus mutant NP-1 was made by thawing a frozen preparation of spores and inoculating 40μl into 40 ml MST medium containing 90 mM MOPS buffer, pH 7.0, 1% starch and 3% trypticase soy broth medium without dextrose (BBL Becton Dickinson Microbiology Systems, Cockeysville, Md.) in 250 ml baffled flasks. The flasks were incubated for 2 days at 30° C. and 250 rpm. One ml of the seed culture was used as inoculum for the main culture which contained 80 ml of MST medium in 500 ml unbaffled flasks. The flasks were incubated for 24 h at 30° C. and 250 rpm.
Preparation of Resting Cells: Cells were harvested by centrifugation at 14,000×g for 15 min at 4° C. and washed twice with cold deionized water. Washed cells were resuspended in 10 ml of water giving a concentration (wet weight) of about 0.31 g/ml.
Preparation of Polyethyleneimine (PEI)-Barium Alginate Entrapped Cells: Resting cells from a one-day old culture of S. clavuligerus NP-1 (2 g wet weight) were directly resuspended in 20 ml of 1.5% (w/v) sodium alginate solution. The resulting sodium alginate-cell suspension was placed into a 10 ml plastic syringe containing a 26.6 G needle. The suspension was added drop by drop into a slowly stirring hardening solution of 2% (w/v) barium chloride containing 1% (w/v) PEI, giving beads of about 1.5-2.0 mm in diameter. […]

[4] = MST supplemented with 50 μg penicillin G/ml, after 72 hours of incubation
[5] = defined medium, 50 μg/ml penicillin G, after 48 hours
[6] = defined medium, 100 μg/ml penicillin G, after 48 hours

CC1(C)S[C@@H]2[C@H](NC(=O)Cc3ccccc3)C(=O)N2[C@H]1C(=O)O [Penicillin G, penicillin G]
cephalosporin produced [1, 4]: 10.5 μg cephalosporin/ml
conversion [1, 4]: approximately 21%
conversion ([1]; MST supplemented with 100 μg penicillin G/ml, after 96 hours): the same level of conversion
cephalosporin produced [1, 5]: 4.55 μg cephalosporin/ml
conversion rate [1, 5]: 9.1%
cephalosporin produced [1, 6]: 10.5 μg cephalosporin/ml
conversion rate [1, 6]: 10.5%
percent conversion ([2]; 0.015 mg/ml substrate, subsequent experiments): ≤ 16.5%
percent conversion ([2]; 0.063 mg/ml of penicillin G): about 9.0%
percent conversion ([2]; 2 mg/ml of penicillin G): about 1.0%
percent conversion ([2]; 8 mg/ml of penicillin G): about 0.4%
increase of cephalosporin production versus 0.05 M Tris-HCl pH 7.4 ([2]; 0.05 M MOPS pH 6.5 or 0.05 M HEPES pH 6.5): more than two-fold
penicillin G conversion ([2]; cells preincubated 3 hours with Fe2+ and ascorbic acid, with or without α-ketoglutarate): virtually eliminated
reduction of total production ([2]; cells preincubated 3 hours with either buffer, Fe2+, ascorbic acid, or α-ketoglutarate): about 50%
cephalosporin production ([3]; cells immobilized in agarose (4% w/v) and k-carrageenan (3% w/v)): did not observe cephalosporin production
ring expansion ([3]; resting cells entrapped in PEI-barium alginate (1.5%)): able to expand penicillin G
